For 19 molecules, TGI and GI50 results are on record in PubChem BioAssay (NCI).

The structures appear in SMILES notation.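 1) Cells in 96-well plates. 2) Compound, 48 h, 5 concentrations. 3) Linear interpolation between surrounding doses. 4) Unreached endpoint = highest concentration. The concentration for 50% growth inhibition is given as GI50. At the TGI there is no net growth.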 A value given as a limit tells only on which side of the number the result lay.

Some test systems named below: HL-60(TB) leukemia; OVCAR-8 ovarian; IGROV1 ovarian; HOP-92 NSCLC; DLD-1 colon; KM20L2 colon; HCC-2998 colon; MDA-MB-435; NCI/ADR-RES ovarian; HS 578T breast.
Experiment in all cases: inhibition of tumour cell growth, NCI panel, 48 h

As for `CCOC(=O)C/C(N)=C(\C#N)C(=O)OCC`, the TGI with HL-60(TB) leukemia, in the experiment on OVCAR-8 ovarian, in the experiment on IGROV1 ovarian, in the experiment with HOP-92 NSCLC, in the experiment on DLD-1 colon and in the experiment with KM20L2 colon was above 100 µM in each case.

`COC(=O)CSc1n[nH]c(-c2ccccc2)n1`: the TGI in the experiment on HL-60(TB) leukemia, in the experiment on OVCAR-8 ovarian, in the experiment on IGROV1 ovarian, with HOP-92 NSCLC, in the experiment on DLD-1 colon and in the experiment on KM20L2 colon was above 100 µM throughout.

Take `COc1ccc(/C=c2\sc3nnc(CCC(=O)Nc4cccc(C(F)(F)F)c4)n3c2=O)cc1`: the TGI with HL-60(TB) leukemia is above 71.6 µM; in the experiment on OVCAR-8 ovarian, above 100 µM; in the experiment on IGROV1 ovarian, above 100 µM; in the experiment on HOP-92 NSCLC, above 100 µM; in the experiment with HCC-2998 colon it was above 100 µM; with DLD-1 colon, above 100 µM. This molecule showed a TGI with KM20L2 colon above 100 µM.

With `COc1ccc2oc(-c3cc4cc(OC)ccc4o3)cc2c1`, the TGI in the experiment with HL-60(TB) leukemia, with OVCAR-8 ovarian, with IGROV1 ovarian, with HOP-92 NSCLC, with HCC-2998 colon and in the experiment with DLD-1 colon was above 100 µM each time. The same molecule registered a TGI with KM20L2 colon above 100 µM.

On to `CCOc1ccc(/C=N\N2C(=O)c3ccccc3C2=O)cc1`, for which the TGI in the experiment on HL-60(TB) leukemia, in the experiment on OVCAR-8 ovarian, in the experiment with IGROV1 ovarian, in the experiment with HOP-92 NSCLC, with HCC-2998 colon and in the experiment with DLD-1 colon was above 100 µM throughout. The same molecule had a TGI in the experiment with KM20L2 colon above 100 µM.

In the case of `CN=c1ss/c(=N\C(=S)N(C)C)n1C1CCCCC1`, the TGI in the experiment on HL-60(TB) leukemia is above 100 µM; with OVCAR-8 ovarian, above 31.6 µM; in the experiment with IGROV1 ovarian, above 31.6 µM; in the experiment on HOP-92 NSCLC it was above 10 µM; with HCC-2998 colon, above 31.6 µM; with DLD-1 colon, above 100 µM. The TGI in the experiment on KM20L2 colon is above 31.6 µM.

As to `COc1cc(-c2ccccc2)c(OC)cc1CCl`, the TGI in the experiment with HL-60(TB) leukemia, in the experiment with OVCAR-8 ovarian, in the experiment on IGROV1 ovarian, with HCC-2998 colon, in the experiment on DLD-1 colon and in the experiment on KM20L2 colon was above 100 µM throughout.

For the molecule `CC(C)(C)c1cc(Oc2ccc(C#N)c(C#N)c2)cc(C(C)(C)C)c1`, the TGI in the experiment on HL-60(TB) leukemia, in the experiment on OVCAR-8 ovarian, with IGROV1 ovarian, in the experiment with HOP-92 NSCLC, in the experiment with HCC-2998 colon and in the experiment on DLD-1 colon was above 100 µM throughout. Besides, the TGI in the experiment with KM20L2 colon is above 100 µM.

On to `CN(C(=O)C12C3C4C1C1C2C3C41C(=O)N(C)C(C)(C)C)C(C)(C)C` (stereo unspecified), for which the TGI in the experiment with HL-60(TB) leukemia, in the experiment on OVCAR-8 ovarian, in the experiment on IGROV1 ovarian, with HOP-92 NSCLC, in the experiment on HCC-2998 colon and in the experiment with KM20L2 colon was above 50 µM throughout.

Take `Cc1ccc(C)c(NC(=O)C(=O)CC(=O)c2cccc3ccccc23)c1`: the TGI in the experiment with HL-60(TB) leukemia, in the experiment with OVCAR-8 ovarian, in the experiment with IGROV1 ovarian, with HOP-92 NSCLC, in the experiment with HCC-2998 colon and in the experiment with DLD-1 colon was above 100 µM throughout. The molecule further gave a TGI with KM20L2 colon above 100 µM.

As to `CC(C)(C)C1CCP(=O)(c2ccccc2)CC1` (stereo unspecified), the TGI in the experiment with HL-60(TB) leukemia, in the experiment with OVCAR-8 ovarian, in the experiment with IGROV1 ovarian, with HCC-2998 colon, in the experiment on DLD-1 colon and in the experiment on KM20L2 colon was above 100 µM throughout.

As to `COC(=O)[C@H]1CC(=O)C=C2CCCC21` (stereo partly specified), the TGI in the experiment on HL-60(TB) leukemia, with OVCAR-8 ovarian, with IGROV1 ovarian, in the experiment on HOP-92 NSCLC, with HCC-2998 colon and in the experiment on DLD-1 colon was above 100 µM in each case.

For `O=C(O)/C(=C/c1ccccc1[N+](=O)[O-])c1cccs1`, the TGI in the experiment on HL-60(TB) leukemia, in the experiment with OVCAR-8 ovarian, with IGROV1 ovarian, with HCC-2998 colon, in the experiment on DLD-1 colon and in the experiment with KM20L2 colon was above 100 µM throughout.

On to `CC1=C(C(=O)Nc2cccc(C(F)(F)F)c2)C(c2ccccc2F)C(C(=O)Nc2cccc(C(F)(F)F)c2)=C(C)N1`, for which the TGI stood at 7.98 µM in the experiment on HL-60(TB) leukemia; 28.2 µM with OVCAR-8 ovarian; 43.7 µM in the experiment on IGROV1 ovarian; 9.11 µM in the experiment on HOP-92 NSCLC; 7.67 µM in the experiment with HCC-2998 colon; 20.3 µM in the experiment with DLD-1 colon. For the same molecule, in the experiment with KM20L2 colon, the TGI came to 18.4 µM.

Regarding `CC(=O)n1cc(CC(C)O)c(=O)[nH]c1=O` (stereo unspecified), the TGI in the experiment with HL-60(TB) leukemia, with OVCAR-8 ovarian, in the experiment on IGROV1 ovarian, with DLD-1 colon and in the experiment on KM20L2 colon was above 100 µM in each case.

Take `NC(=O)c1ccccc1NC(=O)C(=O)Nc1n[nH]c(N)n1`: the TGI in the experiment with HL-60(TB) leukemia, with OVCAR-8 ovarian, in the experiment on IGROV1 ovarian, with HCC-2998 colon, with DLD-1 colon and with KM20L2 colon was above 100 µM throughout.

As for `Cc1nn2c(=O)n(-c3cccc(-n4nnc5c(-c6ccccc6)c(C)nn5c4=O)c3C)nnc2c1-c1ccccc1`, the TGI in the experiment with HL-60(TB) leukemia is 87.9 µM; in the experiment with OVCAR-8 ovarian, above 100 µM; in the experiment with IGROV1 ovarian, above 100 µM; with HOP-92 NSCLC, above 100 µM; in the experiment with HCC-2998 colon, 55.8 µM; with DLD-1 colon, 91.6 µM. The molecule also showed a TGI in the experiment with KM20L2 colon of 42.1 µM.

With `Cc1ccc(SC2C(C)(C)N(C(C)C)P2(=O)N(C(C)C)C(C)C)cc1` (stereo unspecified), the TGI in the experiment on HL-60(TB) leukemia was 41.9 µM; in the experiment with OVCAR-8 ovarian it was above 100 µM; in the experiment on IGROV1 ovarian, above 100 µM; in the experiment on HOP-92 NSCLC, 58.3 µM; in the experiment with HCC-2998 colon, above 100 µM; in the experiment with KM20L2 colon, above 100 µM.

For the molecule `Cc1ccc(-c2c3c(N)nc(-c4ccncc4)nc3nc3c2c(C)nn3-c2ccccc2)cc1`, the GI50 in the experiment with HL-60(TB) leukemia was above 37.5 µM; with MDA-MB-435 it was 12.6 µM; in the experiment on NCI/ADR-RES ovarian it was 7.5 µM; in the experiment on OVCAR-8 ovarian, 3.63 µM; in the experiment with IGROV1 ovarian, 22.5 µM; in the experiment with HOP-92 NSCLC, 5.61 µM. For the same molecule, the GI50 in the experiment with HCC-2998 colon is above 37.5 µM; in the experiment with HS 578T breast it was 5.92 µM. In addition, the TGI in the experiment with HL-60(TB) leukemia was above 37.5 µM; with MDA-MB-435, above 37.5 µM; in the experiment with NCI/ADR-RES ovarian it was above 37.5 µM; in the experiment on OVCAR-8 ovarian, above 37.5 µM; in the experiment on IGROV1 ovarian, above 37.5 µM; in the experiment on HOP-92 NSCLC, 22 µM. For the same molecule, the TGI in the experiment with HCC-2998 colon and in the experiment with HS 578T breast was above 37.5 µM in each case.
